Ten molecules from PubChem BioAssay AID449756 (Broad Institute, 2010) can be followed below.

Inconclusive results are not listed.

The test system of the experiment is INS-1E rat beta cells, cytokine apoptosis rescue, ATP luminescence 48 h. Briefly: INS-1E survival protection against cytokine death – cell-based, luminescence, retest, dose response (AID 449756).
Take `C#CCOCCOCCOCCNc1nc(N2CCN(C(=O)CCCCCCCCCCNC(=O)[C@@H](CCSC)n3cc(CCO)nn3)CC2)nc(N2CCN(C(=O)CCCCCCCCCCNC(=O)[C@H]([C@@H](C)CC)n3cc(CCCCCN)nn3)CC2)n1`: the AC50 is 3.98 µM.

Regarding `C#CCOCCOCCOCCNc1nc(N2CCN(C(=O)CCCCCCCCCCNC(=O)[C@H](CCCCN)n3cc(C)nn3)CC2)nc(N2CCN(C(=O)CCCCCCCCCCNC(=O)[C@H](CCCN=C(N)N)n3cc(C[C@@H](C)CC)nn3)CC2)n1`, the AC50 is 6.66 µM.

Take `C#CCOCCOCCOCCNc1nc(N2CCN(C(=O)CCCCCCCCCCNC(=O)[C@H](CCCCN)n3cc(C)nn3)CC2)nc(N2CCN(C(=O)CCCCCCCCCCNC(=O)[C@@H]([C@H](C)CC)n3cc(CCCCCN)nn3)CC2)n1`: the AC50 was 5.59 µM.

Take `C#CCOCCOCCOCCNc1nc(N2CCN(C(=O)CCCCCCCCCCNC(=O)[C@H]([C@@H](C)CC)n3cc(CCCCN=C(N)N)nn3)CC2)nc(N2CCN(C(=O)CCCCCCCCCCNC(=O)[C@H](CCCCN)n3cc(C)nn3)CC2)n1`: the AC50 was 4.96 µM.

For `C=C(C=O)C[C@@H]1C[C@H](O)C2OC3C[C@]4(C)OC5/C=C\CC6OC7C(CC=CCC6OC5CCCC4OC3CC2O1)OC1CC2OC3CC(=O)OC3C[C@@H](C)C[C@@]2(C)OC1C[C@@H]7C` (stereo not given in full), the AC50 is 2.17 µM.

Take `C#CCOCCOCCOCCNc1nc(N2CCN(C(=O)CCCCCCCCCCNC(=O)[C@H](CCCCN)n3cc(CCO)nn3)CC2)nc(N2CCN(C(=O)CCCCCCCCCCNC(=O)[C@H](CCCCN)n3cc(C[C@@H](C)CC)nn3)CC2)n1`: the AC50 was 6.27 µM.

With `C#CCOCCOCCOCCNc1nc(N2CCN(C(=O)CCCCCCCCCCNC(=O)[C@H]([C@@H](C)CC)n3cc(CCCCCN)nn3)CC2)nc(N2CCN(C(=O)CCCCCCCCCCNC(=O)[C@H]([C@@H](C)CC)n3cc(CCCCN=C(N)N)nn3)CC2)n1`, the AC50 was 4.66 µM.

For `C#CCOCCOCCOCCNc1nc(N2CCN(C(=O)CCCCCCCCCCNC(=O)Cn3cc(CCCCCN)nn3)CC2)nc(N2CCN(C(=O)CCCCCCCCCCNC(=O)[C@H]([C@@H](C)CC)n3cc(CCCCN=C(N)N)nn3)CC2)n1`, the AC50 was 6.89 µM.

For the molecule `C#CCOCCOCCOCCNc1nc(N2CCN(C(=O)CCCCCCCCCCNC(=O)[C@H]([C@@H](C)CC)n3cc(CCCCN=C(N)N)nn3)CC2)nc(N2CCN(C(=O)CCCCCCCCCCNC(=O)[C@H](CO)n3cc(CCCCCN)nn3)CC2)n1`, the concentration at half-maximal activity (AC50) is 6.94 µM.

For `C#CCOCCOCCOCCNc1nc(N2CCN(C(=O)CCCCCCCCCCNC(=O)[C@H]([C@@H](C)CC)n3cc(CCCCCN)nn3)CC2)nc(N2CCN(C(=O)CCCCCCCCCCNC(=O)[C@@H]([C@H](C)O)n3cc(C)nn3)CC2)n1`, the AC50 was 5.76 µM.

What is called AC50 is the concentration giving half of the maximal activity seen.
